Reference: patent publication US20230135100A1, “PROCESS OF PREPARING A PEPTIDE EPOXYKETONE IMMUNOPROTEASOME INHIBITOR, AND PRECURSORS THEREOF” (KEZAR LIFE SCIENCES, priority 2016, published 2023)
“And” between values parts separate entries of the source, which are not always exact repeats. Identical values can stand only once. Counter-ions that a name gives are not always drawn. Like-named read-outs stand apart in the source and are kept apart here.

Conditions: 25° C., relative humidity 40%

SMILES	% Purity at Indicated Time (days) (90 days)	% Decomposition (1 day)	% Purity at Indicated Time (days) (1 day)
C[C@]1(C(=O)[C@@H](N)CC2=CCCC2)CO1 [Tosylate, (S)-3-(cyclopent-1-en-1-yl)-1-((R)-2-methyloxiran-2-yl)-1-oxopropan-2-aminium salt]	96.0 (90) % and 85.0 (90) %		
C[C@]1(C(=O)[C@@H](N)CC2=CCCC2)CO1 [Trifluoroacetate, (S)-3-(cyclopent-1-en-1-yl)-1-((R)-2-methyloxiran-2-yl)-1-oxopropan-2-aminium salt]		5.7% and 8.8%	79.6 (1) % and 86.0 (1) %
